Patent EP3150574B1, “AMANTADINE NITRATE COMPOUND HAVING A NEUROPROTECTIVE EFFECT AND PREPARATION AND MEDICAL USE THEREOF” (Guangzhou Magpie Pharmaceuticals Co., Ltd., priority 2014, dated 2015)

System: primary cerebellum granule cells of rats
Assay: Protective effects of compounds on primary cerebellum granule cells against glutamate-induced excitotoxic injury (MTT cell viability)
Assay type: cell-based
Settings: protective effect on rat's nerve cells, pre-protection 2 h, then for 24 h, absorbance at 570 nm
Method: Isolated primary cerebellum granule cells of infant rats were inoculated in 96-well plates with 1.2×10^5/well by using 10% FBS + 25 mM KCl + 2 mM Glutamine + 1% of double-antibody BME medium. After 24 hours, cytarabine with a final concentration of 10 iM was added to inhibit the proliferation of neurogliocyte cells. After the day 4, glucose with the final concentration of 5 mM was added every four days to complement energy metabolism and water evaporation of cells. The materials were placed in a cell incubator (37 °C, 5% CO2) to be cultured for 10 days. […] After pre-protection for 2 h, 200 iM of glutamate was added to induce cell damage for 24h, and then MTT was added to culture for 4 h. The supernatant fraction was sucked, and 150 iL of DMSO was added to each well for dissolving. After blending with shaking, the light absorption values under 570 nm wavelength was measured with a microplate reader, and the viability of cells was calculated. Cell viability (%) = absorbance of different groups / absorbance of the normal control group × 100%.

In order of rising EC50:
1. NC12CC3CC(CCO[N+](=O)[O-])(C1)CC(CCO[N+](=O)[O-])(C3)C2 [NM-009]  5.2 µM
2. CCC12CC3CC(N)(C1)CC(CCCO[N+](=O)[O-])(C3)C2 (stereo not shown) [NM-005]  6.06 µM
3. CCC12CC3CC(N)(C1)CC(CO[N+](=O)[O-])(C3)C2 (stereo not shown) [NM-004]  8.12 µM
4. CC(CO[N+](=O)[O-])CC12CC3CC(N)(C1)CC(CC(C)CO[N+](=O)[O-])(C3)C2 (stereo not shown) [NM-012]  9.3 µM
